Results reported in patent US20240426807A1, “SCREENING SYSTEM” (Givaudan SA, priority 2021, published 2024).
Entries after “also recorded” stand apart in the source; their conditions may differ.

How the values were obtained:
Type in all cases: cell-based
OR5AN1 [1] = target: T1, OR5AN1 (Homo sapiens, UniProt Q8NGI8); assay: Ligand-induced blasticidin resistance, OR5AN1 cells (pGL4.29-CRE-BLAST-OR); conditions: HEK293T OR5AN1, odorant 10 μM, blasticidin 0.5-256 μg/ml, PrestoBlue viability day 4
T1 construct: expressed in transfected cells
T1 sequence (Q8NGI8 1-311): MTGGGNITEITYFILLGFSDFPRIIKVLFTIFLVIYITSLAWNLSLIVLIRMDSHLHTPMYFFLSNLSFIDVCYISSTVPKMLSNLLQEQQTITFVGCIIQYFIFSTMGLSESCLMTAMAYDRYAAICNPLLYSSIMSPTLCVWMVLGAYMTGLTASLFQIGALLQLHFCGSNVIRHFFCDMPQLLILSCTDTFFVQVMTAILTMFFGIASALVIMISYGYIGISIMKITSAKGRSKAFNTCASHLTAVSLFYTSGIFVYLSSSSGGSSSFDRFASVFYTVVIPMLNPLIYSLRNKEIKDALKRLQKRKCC
Source text: To generate a vector allowing positive selection of cell clones with a functional expression of a specific OR gene, a blasticidin resistance gene was placed downstream of SEQ ID NO: 4. The pGL4.29-CRE-Puro-OR vector generated as described in Example 1 was digested with BgIII and FseI to remove the comprised basal promoter and the complete puromycin resistance gene. The removed basal promoter sequence was amplified with the primers […] (SEQ ID NO: 28), […] (SEQ ID NO: 63), and the blasticidin S deaminase (bsd, SEQ ID NO: 64) encoding sequence was amplified by PCR using the primers […] (SEQ ID NO: 66) […] (SEQ ID NO: 67). The two overlapping PCR products were joined by fusion PCR using primers […] (SEQ ID NO: 28) and […] (SEQ ID NO: 68). The resulting DNA fragment was digested with BgIII/FseI and ligated into the digested vector to generate pGL4.29-CRE-Blast-OR.
This vector was used to generate stable cell lines as described in Example 1.
Stable clones containing a stable insertion of the pGL4.29-CRE-BLAST-OR construct with the receptor OR5AN1 (NCBI Genbank Gene ID: 390195) were then plated at a density of 3000 cells/per well in 100 μl Dubelcco's Modified Eagle medium (DMEM) in polyethyleneimide-coated, white 96 well microtiter plates with a transparent bottom. After cells were allowed to adhere for 24 h, 50 μl of medium containing different odorants (musk ketone or ethyl vanillin at 40 μM) was added to each well resulting in an odorant concentration of 13.3 μM. 6 h after odorant addition, 50 μl of medium containing blasticidin was added to reach a final concentration of 0.5-256 μg/ml in 10 two-fold dilution steps (day 1 of selection). This step further diluted the odorant to 10 μM. On day 4 of the selection (72 h after blasticidin addition), medium from each well was removed completely, 100 μl PrestoBlue® cell viability reagent (ThermoFisher Scientific, Catalog No: 14200-083) diluted in phosphate buffered saline containing 1 mg/ml glucose was added to each well and cells were incubated at 37° C. until a color change was visible in the wells containing no blasticidin. The fluorescence was determined at 560 excitation and 590 nm emission to assess relative cell metabolic activity, which is the net result of cell growth and cell killing in presence of the different blasticidin concentrations. The result was expressed as % viability relative to controls with no cells (0%) and cells treated with olfactory ligand only (100%).

OR10G7 = target: T2, OR10G7 (Homo sapiens, UniProt Q8NGN6, T5S); assay: Ligand-induced OR-dependent puromycin resistance, OR10G7 cells; conditions: HEK293T, pGL4.29-CRE-Puro-Hygro-OR with OR10G7; musk ketone 10 μM, eugenol or isoeugenol 1 μM, ultravanil or vanitrope 100 μM; puromycin 0.015-16 μg/ml; PrestoBlue viability day 4
T2 construct: expressed in transfected cells
T2 sequence (Q8NGN6 1-311 T5S): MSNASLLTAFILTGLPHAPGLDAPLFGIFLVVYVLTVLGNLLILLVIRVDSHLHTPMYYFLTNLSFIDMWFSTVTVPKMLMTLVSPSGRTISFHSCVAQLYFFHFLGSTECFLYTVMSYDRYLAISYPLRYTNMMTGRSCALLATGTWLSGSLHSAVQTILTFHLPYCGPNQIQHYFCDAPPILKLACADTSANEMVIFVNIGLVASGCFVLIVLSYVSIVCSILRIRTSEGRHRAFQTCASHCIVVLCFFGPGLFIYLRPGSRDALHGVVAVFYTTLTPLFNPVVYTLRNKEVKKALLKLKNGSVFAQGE
Method: (§1) Stable clones selected with hygromycin containing a stable insertion of the pGL4.29-CRE-Puro-Hygro-OR construct described in Example 1 with either one of the receptors OR10G7, OR10G9 or OR5AN1 (NCBI Genbank Gene ID 390265, 219870 and 390195) were plated at a density of 3000 cells/per well in 200 μl Dubelcco's Modified Eagle medium (DMEM) in polyethyleneimide-coated, white 96 well microtiter plates with a transparent bottom. After cells were allowed to adhere for 24 h, they were exposed to different odorants (musk ketone at 10 μM, eugenol or isoeugenol at 1 μM, ultravanil or vanitrope at 100 μM). 7 h after odorant addition, 100 μl of the medium was removed and replaced with fresh medium with the same odorant concentrations and, in addition, puromycin to reach a final concentration of 0.015-16 μg/ml in 11 twofold dilution steps (day 1 of selection). On day 2 and 3, 100 μl of the medium was again removed and replaced with fresh medium with the same concentration of odorant and puromycin. On day 4 of the selection, medium from each well was removed completely, 100 ul PrestoBlue® cell viability reagent (ThermoFisher Scientific, Catalog No: 14200-083) diluted in phosphate buffered saline was added to each well and cells were incubated at 37° C. until a color change was visible in the wells containing no puromycin. The fluorescence was determined at 560 excitation and 590 nm emission to assess relative cell metabolic activity, which is the net result of cell growth and cell killing in presence of the different puromycin concentrations. The result was expressed as % viability relative to controls with no cells (0%) and cells treated with olfactory ligand only (100%).

OR10G9 = target: T3, OR10G9 (Homo sapiens, UniProt Q8NGN4); assay: Ligand-induced OR-dependent puromycin resistance, OR10G9 cells; conditions: HEK293T, pGL4.29-CRE-Puro-Hygro-OR with OR10G9; musk ketone 10 μM, eugenol or isoeugenol 1 μM, ultravanil or vanitrope 100 μM; puromycin 0.015-16 μg/ml; PrestoBlue viability day 4
T3 construct: expressed in transfected cells
T3 sequence (Q8NGN4 1-311): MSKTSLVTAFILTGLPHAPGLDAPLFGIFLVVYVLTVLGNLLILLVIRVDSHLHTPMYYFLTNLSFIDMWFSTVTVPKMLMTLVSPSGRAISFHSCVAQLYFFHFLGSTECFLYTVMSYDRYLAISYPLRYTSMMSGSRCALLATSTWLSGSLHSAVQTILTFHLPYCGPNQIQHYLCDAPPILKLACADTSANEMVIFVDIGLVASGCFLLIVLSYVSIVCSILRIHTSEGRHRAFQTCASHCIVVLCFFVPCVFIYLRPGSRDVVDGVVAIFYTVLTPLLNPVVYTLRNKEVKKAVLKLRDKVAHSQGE
Method: as §1

OR5AN1 [2] = target: T1, OR5AN1; assay: Ligand-induced OR-dependent puromycin resistance, OR5AN1 cells; conditions: HEK293T, pGL4.29-CRE-Puro-Hygro-OR with OR5AN1; musk ketone 10 μM, eugenol or isoeugenol 1 μM, ultravanil 100 μM; puromycin 0.015-16 μg/ml; PrestoBlue viability day 4
Method: as §1

OR5A2 (clone 3) = target: T4, OR5A2 (clone 3) (Homo sapiens, UniProt Q8NGI9); assay: Ligand-induced puromycin resistance of isolated clone 3 containing OR5A2; conditions: for puromycin resistance of clone 3 in presence of odorant: clone 3 (OR5A2), 11 concentrations of puromycin, co-treated with olfactory ligands
T4 construct: expressed in transfected cells; clone 3 selected with musk ambrette and puromycin
T4 sequence (Q8NGI9 with tags, fused parts or gaps): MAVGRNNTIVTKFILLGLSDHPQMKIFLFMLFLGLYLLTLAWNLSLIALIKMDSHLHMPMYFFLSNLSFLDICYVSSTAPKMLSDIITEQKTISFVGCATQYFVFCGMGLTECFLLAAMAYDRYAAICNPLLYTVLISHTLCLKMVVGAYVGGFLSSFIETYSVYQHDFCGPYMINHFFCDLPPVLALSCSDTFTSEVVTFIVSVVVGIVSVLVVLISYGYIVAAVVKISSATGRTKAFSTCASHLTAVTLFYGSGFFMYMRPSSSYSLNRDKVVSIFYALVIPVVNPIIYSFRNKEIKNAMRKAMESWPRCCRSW

[3] = target: T5, pool of cells with OR5A1, OR5A2, OR5AN1, OR6Y1, OR10G4, OR10G7 or OR10G9 (Homo sapiens, UniProt Q8NGN3); assay: Selection of cognate-receptor cells from a pool of OR-expressing cells with the target ligand and puromycin; conditions: 100 μM vanitrope, puromycin 1 μg/ml, pool of 7 OR transfections
T5 construct: expressed in transfected cells; host or cells: HEK293T stably expressing RTP1S and RTP2; 7 separate transfections pooled
T5 sequence (Q8NGN3 1-311): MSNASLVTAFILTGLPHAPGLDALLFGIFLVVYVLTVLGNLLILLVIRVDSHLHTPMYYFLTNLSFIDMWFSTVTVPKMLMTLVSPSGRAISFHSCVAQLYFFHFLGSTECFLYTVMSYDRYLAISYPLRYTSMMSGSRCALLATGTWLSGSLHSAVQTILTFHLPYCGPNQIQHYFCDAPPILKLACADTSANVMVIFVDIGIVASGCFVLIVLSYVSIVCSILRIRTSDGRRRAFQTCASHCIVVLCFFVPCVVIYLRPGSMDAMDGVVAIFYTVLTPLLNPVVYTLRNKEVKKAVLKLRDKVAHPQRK
Method: For many ligands the cognate OR receptors are not known (“orphan receptors”), or it is unknown among a pool of receptors, which one has the best affinity for a ligand of interest, e.g. a perfumery note of particular interest. Thus, the ligand-induced selection pressure can be used to enrich a specific OR-expressing cell from a pool of OR-expressing cells in the presence of a ligand of interest. HEK293T cells stably expressing RTP1S and RTP2 were seeded into 7 wells of 6-well plates at 330,000 cells/well.
The next day, the cells of each well were transfected with 2 μg of a PvuI-linearized pGL4.29-CRE-Puro-Hygro-OR construct harboring one of the receptors OR5A1 (NCBI Genbank Gene ID: 219982), OR5A2 (NCBI Genbank Gene ID: 219981), OR5AN1 NCBI Genbank Gene ID: 390195, SEQ ID NO: 70), OR6Y1 (NCBI Genbank Gene ID: 391112), OR10G4 (NCBI Genbank Gene ID: 390264, SEQ ID NO: 72), OR10G7 (NCBI Genbank Gene ID: 390265, SEQ ID NO: 71), or OR10G9 (NCBI Genbank Gene ID: 219870). 24 h after transfection, the cells of all 7 transfections were harvested and pooled. 350 cells of this pool of cells with different OR genes inserted were then seeded into each well of seven 96-well plates.
3 days later, cells were stimulated with ligands for either OR5AN1 (10 μM musk ketone), OR10G7 (1 μM eugenol), or OR10G4 (100 μM vanitrope). One plate was treated with DMSO only. 6h after the addition of the OR ligands, puromycin was added to each plate at a final concentration of 1 μg/ml. On every day during the following week, the medium on all plates was replaced with fresh medium containing the corresponding ligand and puromycin. The plates were then searched for wells containing only a single colony of puromycin-resistant cells. The cells of those colonies were transferred to larger plates and grown until they had multiplied to about 8 Mio cells. The genomic DNA of 2 Mio cells of each clone were isolated using the Puregene kit according to the manufacturer's protocol. […]

Row | Structure (SMILES) | puromycin resistance in presence of odorant versus solvent control (OR10G7) | puromycin resistance in presence of odorant versus solvent control (OR10G9) | puromycin resistance in presence of odorant versus solvent control (OR5AN1 [2]) | puromycin resistance of clone 3 in presence of odorant (OR5A2 (clone 3)) | other results
1 | CCOc1cc(C=O)ccc1O [ethyl vanillin] |  |  |  |  | blasticidin resistance in presence of odorant versus solvent control (OR5AN1 [1]): equally sensitive to blasticidin as in presence of the solvent control; blasticidin resistance in presence of odorant versus solvent control (OR5AN1 [1]; listed as ethylvanillin): does not increase resistance over solvent control
2 | CC=Cc1ccc(O)c(OC)c1 [isoeugenol] | increased resistance to puromycin; also recorded: strongly enhanced puromycin resistance | no increased resistance | do not increase resistance over solvent control; also recorded: the resistance was equal to the solvent control |  | 
3 | COc1c(C(C)(C)C)cc([N+](=O)[O-])c(C)c1[N+](=O)[O-] [musk ambrette] |  |  |  | increased resistance to puromycin | survival of clone 3 under puromycin treatment with ligand (OR5A2 (clone 3); musk ambrette 30 μM, puromycin 3 μg/ml, continuous exposure): able to survive puromycin treatment in presence of the ligand musk ambrette but not in its absence
4 | CC(OC(C)(C)COC(=O)C1CC1)C1CCCC(C)(C)C1 (centres unmarked) [serenolide] |  |  |  | increased resistance to puromycin | 
5 | CCOc1cc(C)ccc1O [ultravanil, vanilla cresol] | increased resistance to puromycin; also recorded: strongly enhanced puromycin resistance | increased resistance to puromycin; also recorded: selectively enhanced resistance | do not increase resistance over solvent control; also recorded: the resistance was equal to the solvent control |  | 
6 | C/C=C/c1ccc(OCC)c(O)c1 [vanitrope, propenyl guaethol] | increased resistance to puromycin; also recorded: strongly enhanced puromycin resistance | increased resistance to puromycin; also recorded: selectively enhanced resistance |  |  | colonies selected with the ligand that contained OR10G4 [3]: 8 out of 8
